Data from patent US20200206257A1, “HOMOGENEOUS POLY[…]-B4, DERIVED FROM HERBA EPHEDRA, PREPARATION METHOD AND MEDICAL USE THEREOF” (priority 2018, published 2020).
Several values for one entry are separate records, joined by “and”; a condition that tells them apart may be missing. Equal entries are not always repeated.

Columns and labels:
[1] = system: LPS-induced acute lung injury in mice; assay: LPS-induced acute lung injury in mice, inflammatory factors in lung tissue homogenate; assay type: in vivo; conditions: 50 mg/kg intraperitoneal, 7 days, left lung homogenate, mean±SD
[2] = system: Escherichia coli-induced pneumonia in mice; assay: Escherichia coli-induced pneumonia in mice, inflammatory factors in lung tissue homogenate; assay type: in vivo; conditions: 100 mg/kg intragastric (positive control), 7 days, left lung homogenate, mean±SD

Row | Compound | IL-6 [1] | IL-8 [1] | TNF-α [1] | Tp (Total protein) [1] | IL-6 [2] | IL-8 [2] | TNF-α [2] | Tp [2] | IL-6 ([2]; listed as gentamicin sulfate) | IL-8 ([2]; listed as gentamicin sulfate) | TNF-α ([2]; listed as gentamicin sulfate)
1 | C[C@@H]1C[C@H]2[C@@H]3CCC4=CC(=O)C=C[C@]4(C)[C@@]3(F)[C@@H](O)C[C@]2(C)[C@@]1(O)C(=O)CO [Dexamethasone, dexamethasone] | 255.18 ± 35.63 pg/mL | 52.7 ± 9.99 pg/mL | 861.41 ± 71.04 pg/mL | 202.40 ± 16.54 µg/mL | – | – | – | – | – | – | –
2 | gentamicin sulfate [Gentamycin Sulfate] | – | – | – | – | 285.16 ± 32.71 pg/mL | 49.36 ± 10.01 pg/mL | 834.10 ± 70.10 pg/mL | significantly decreased and 197.05 ± 14.20 μg/mL | significantly decreased | significantly decreased | significantly decreased
